Columns and labels:
[1] = In vivo CPT plasma concentrations after single IV injection; conditions: IV injection of free CPT (2 mg/kg)
Protocol: Values are reported as mean ±SD.
(§1) This was determined by preparing PEGylated 6 μm polystyrene MPs with three copies of the norvaline (Nva) α-amino acid prodrug of CPT. […] Anti-cancer efficacy was evaluated in an orthotopic rat lung cancer model and compared to a bolus injection of CPT.

[2] = test system: A549 cell; test: Anti-cancer efficacy in orthotopic rat lung cancer model (A549 cell inoculation); assay type: in vivo, nude rats; conditions: IV every 3 days for 27 days; free CPT 2 mg/kg, CPT-Nva-MPs 0.2 mg/kg CPT
Protocol: as §1
The treatment was conducted every 3 days for 27 days. The day after the last treatment, all animals were euthanized, and organs (lung, heart, […], spleen and […]) were dissected and weighed. The organs were fixed in 10% neutral buffered formalin for H & E staining.

[3] = test system: caspase 3/7; conditions: A549 cells, 24 hours; 1 μM paclitaxel alone or with 1 mM R-ALA
Protocol: Cell viability (FIG. 11—left) and caspase 3/7 activation (apoptosis) (FIG. 11—right) of A549 cells were evaluated in response to a low dose (˜EC5-EC20) of paclitaxel alone (1 μM), low dose paclitaxel +R-ALA (1 mM) or a solvent control (0.1% DMSO). Cell viability was determined with AlamarBlue® assay. Caspase 3/7 activation was determined as a measure of apoptosis using a fluorometric assay kit (Biovision, Mountain View, Calif.). A549 cells were treated with solvent control (0.1% DMSO), 1 μM paclitaxel, and 1 μM paclitaxel+1 mM R-ALA for 24 hours.

SMILES: CC[C@@]1(O)C(=O)OCc2c1cc1n(c2=O)Cc2cc3ccccc3nc2-1 [free CPT, camptothecin]
- systemic exposure (CPT plasma) [1]: high but short-lived systemic exposures
- areas of lung cancer versus untreated animals [2]: smaller areas of lung cancer

SMILES: CC(=O)O[C@H]1C(=O)[C@@]2(C)[C@H]([C@H](OC(=O)c3ccccc3)[C@]3(O)C[C@H](OC(=O)[C@H](O)[C@@H](NC(=O)c4ccccc4)c4ccccc4)C(C)=C1C3(C)C)[C@]1(OC(C)=O)CO[C@@H]1C[C@@H]2O [paclitaxel]
- caspase 3/7 activation relative to controls [3]: 1.5 fold

— US9125835B2, “Synergistic combinations to reduce particle dose for targeted treatment of cancer and its metastases” (priority 2010, dated 2015)
